From patent US6310095A, “Inhibitors of protein isoprenyl transferases” (University of Pittsburgh, priority 1998, dated 2001)
Counter-ions that a name gives are not always drawn. One block for each molecule: values may come before it.

Molecular target: T1, protein farnesyltransferase (Rattus norvegicus, UniProt Q02293+Q04631)
T1 construct: Rat brain protein farnesyltransferase activity is measured; from tissue; host or cells: rat brain; purified according to Reiss et al., Cell 62:81-88 (1990), steps one through three
Assay: in vitro inhibition of protein farnesyltransferase (scintillation proximity assay, biotin-K Ras B fragment)
Assay type: biochemical
Settings: for inhibition at 10 µM: at 1 × 10^-5 M
Procedure, shortened: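 Rat brain enzyme, purified through three steps, in a scintillation proximity assay kit with biotin-K Ras B fragment substrate at 0.1 mM final. Value is % inhibition of farnesylation.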

[1] = at 1 × 10^-6 M, read-out: % inhibition of farnesyltransferase

% inhibition of farnesyltransferase (at 1 × 10^-6 M): 98%
SMILES: Cc1ccccc1-c1cc(CN(C2CC2)C(C)(C)Cc2ccccc2)ccc1C(=O)N[C@@H](CCS(C)(=O)=O)C(=O)O [Example 319]

inhibition at 1 µM [1]: 72%
SMILES: CSCC[C@H](NC(=O)c1ccc(CN(CCO)c2ccccc2)cc1-c1ccccc1)C(=O)O [Example 505]

% inhibition of farnesyltransferase (at 1 × 10^-7 M): 83%
SMILES: CSCC[C@H](NC(=O)c1ccc(CSc2ccccc2C(C)C)cc1-c1ccccc1C)C(=O)O [Example 739]

inhibition at 10 µM: 56%
SMILES: CSCC[C@H](NC(=O)c1ccc(CNC(CO)Cc2ccccc2)cc1-c1ccccc1)C(=O)O (stereo partly shown) [Example 714]

inhibition at 0.1 µM (at 1 × 10^-7 M, read-out: % inhibition of farnesyltransferase): 84%
SMILES: CSCC[C@H](NC(=O)c1ccc(CNc2ccc(Oc3ccccc3)cc2)cc1-c1ccccc1C)C(=O)O [Example 864, N-[4-N-(4-phenoxyphenyl)aminomethyl-2-(2-methylphenyl)benzoyl]methionine]

% inhibition of farnesyltransferase (at 1 × 10^-6 M): 95%
SMILES: CSCC[C@H](NC(=O)c1ccc(COCC(CC2CCCCC2)CC2CCCCC2)cc1-c1ccccc1C)C(=O)O [Example 889]

SMILES: CSCC[C@H](NC(=O)c1ccc(C=Cc2ccccc2Oc2ccccc2)cc1-c1ccccc1C)C(=O)[O-].[Li+] [Example 453]
% inhibition of farnesyltransferase (at 1 × 10^-6 M): 90%

inhibition at 1 µM [1]: 88%
SMILES: CCSC[C@H](CC1CCCCC1)NCc1ccc(C(=O)N[C@@H](CCSC)C(=O)OCOC(=O)C(C)(C)C)c(-c2ccccc2C)c1 [Example 764, hydrochloride salt]

inhibition at 1 µM [1]: 31%
SMILES: CSCC[C@H](NC(=O)c1ccc(NC(=O)C2CCC(=O)N2)cc1-c1ccccc1)C(=O)O (stereo partly shown) [Example 202, [4-(2-pyrrolidinone-5-ylcarbonylamino)-2-phenylbenzoyl]methionine]

inhibition at 10 µM: 48%
SMILES: CSCC[C@H](NC(=O)c1ccc(CNc2cccc(CC(=O)O)c2)cc1-c1ccccc1)C(=O)O [Example 684]

% inhibition of farnesyltransferase (at 1 × 10^-7 M): 87%
SMILES: CSCC[C@H](NC(=O)c1ccc(CCc2ccccc2Cc2ccccc2)cc1-c1ccccc1C)C(=O)O [Example 458]

inhibition at 1 µM [1]: 85%
SMILES: CSCC[C@H](NC(=O)c1ccc(CNCCSC(C)(C)C)cc1-c1ccccc1)C(=O)O [Example 627]

% inhibition of farnesyltransferase (at 1 × 10^-7 M): 65%
SMILES: CSCC[C@H](NC(=O)c1ccc(/C=C/c2ccc(Oc3cccc([N+](=O)[O-])c3)cc2)cc1-c1ccccc1C)C(=O)O [Example 861]

inhibition at 1 µM [1]: 99%
SMILES: CCSC[C@H](CC1CCCCC1)NCc1ccc(C(=O)N[C@@H](CCSC)C(=O)O)c(-c2ccccc2C)c1 [Example 403, [4-(1-ethylthio-3-cyclohexylprop-2-ylaminomethyl)-2-(2-methylphenyl)benzoyl]methionine]

% inhibition of farnesyltransferase (at 1 × 10^-6 M): 93%
SMILES: CSCC[C@H](NC(=O)c1ccc(CN(C2CC2)C(C)(C)Cc2ccccc2)cc1-c1ccccc1C)C(=O)O [Example 315]

inhibition at 10 µM: 48%
SMILES: CSCC[C@H](NC(=O)c1ccc(CNc2cccc(Oc3ccccc3)c2)cc1-c1ccccc1)C(=O)O [Example 686]

% inhibition of farnesyltransferase (at 1 × 10^-6 M): 78%
SMILES: CSCC[C@H](NC(=O)c1cc(Cc2ccccc2)c(COCc2ccccc2)cc1-c1ccccc1C)C(=O)O [Example 923]

inhibition at 1 µM [1]: 72%
SMILES: CSCC[C@H](NC(=O)c1ccc(CNCCN(C(C)C)C(C)C)cc1-c1ccccc1)C(=O)O [Example 636]

inhibition at 1 µM [1]: 50%
SMILES: CSCCC(NC(=O)c1ccc(NC(=O)C2CCCNC2)cc1-c1ccccc1)C(=O)O (stereo not shown) [Example 231, [4-(3-piperidinecarboxyamino)-2-phenylbenzoyl]methionine hydrochloride]

inhibition at 0.01 µM (at 1 × 10^-8 M, read-out: % inhibition of farnesyltransferase): 92%
SMILES: CC[C@H](CC1CCCCC1)NCc1ccc(C(=O)N[C@@H](CCSC)C(=O)O)c(-c2ccccc2C)c1 [Example 614, N-[4-(4-cyclohexylbutan-3-ylaminomethyl)-2-(2-methylphenyl)benzoyl]methionine Lithium Salt]

% inhibition of farnesyltransferase (at 1 × 10^-7 M): 93%
SMILES: CSCC[C@H](NC(=O)c1ccc(CSc2nc3ccccc3c(=O)[nH]2)cc1-c1ccccc1C)C(=O)O [Example 745]

inhibition at 1 µM [1]: 82%
SMILES: CSCC[C@H](NC(=O)c1ccc(CN[C@H](/C=C\CC(C)C)CC2CCCCC2)cc1-c1ccccc1)C(=O)O [Example 666]
